Series [1] concerns hypertriglyceridemia induced by carbohydrates in male rats. Kind of series: Action on the hypertriglyceridemia induced by carbohydrates (fructose) in male rats. It counts as in vivo. The note with it: Rattus norvegicus, 72 h, 3-day oral pre-treatment, vs untreated control, read-out: Change in percentage of hypertriglyceridemia induced by carbohydrates.
For a further series, the system named is mice. To be noted: Table 3.
Series [2] relates to dietetic-medicamentous hyperlipemia of male rats. Kind of series: Action on the dietetic-medicamentous hyperlipemia of male rats. It is filed as in vivo. To be noted: Rattus norvegicus, po, 192 h, 100 mg/kg/day p.o., 8 days, male rats on cholesterol diet. The source says:
All the animals were fed with a diet food containing 2% of cholesterol, 2% of sodium cholate, 0.3% of methyl-thiouracil, 20% of coco fat and 44% of cane sugar. The serum lipid concentration of the animals treated with the compounds of the invention was compared to that of an untreated control group on the same diet, which diet causes the serum cholesteral concentration to rise within 1 week to about 10 times the initial value, that of the serum triglycerides to 3 times and that of the phospho-lipids in the serum to 4 times the initial value. The lipid phosphorus was determined according to the method of Messrs. Boehringer Mannheim W. Germany. At the same time as the diet was offered, the compounds of the invention were administered once a day to groups of rats, each containing 10 animals, over a period of 8 days by means of an esophageal sound. The change in percentage in the serum lipid concentration as compared to the control group (diet without active substance) is indicated in Table 2.

A short description of another series: in vivo. To be noted: mouse, po.
In the next series the test system is normolipemic rats. Kind of series: Reduction of serum lipid values in normolipemic rats (8 days oral). It counts as in vivo, rat. The note with it: 8 doses, male rats; for serum triglyceride, change in percentage (A: referred to the initial value) / serum cholesterol, change in percentage (A: referred to the initial value): column A; for serum triglyceride, change in percentage (B: referred to the untreated control group) / serum cholesterol, change in percentage (B: referred to the untreated control group): column B. Here is the method:
1. Male rats having a normal serum lipid content were treated for eight days with different daily doses mentioned in Table 1. The values given in that Table stand for a change in the serum concentrations of certain lipid classes. The doses administered per os by means of an esophageal sound were 100, 30 and 10 mg/kg/day. Generally, prior to and after the treatment, blood samples were taken and the concentration of cholesterol in the serum was determined according to the method of Lauber and Richterich and that of triglycerides according to the method of Eggstein and Kreutz. In the examples of the following Table 1, the changes in the serum lipid values due to the treatment with the substances of the invention are defined as follows:
a. The changes in percent in the final value of the treated group, referred to the initial value of the treated group, the initial value being 100 percent, and
b. the change in the final value of the treated group, referred to the final value of an accompanying untreated control group, the untreated control group's value being defined as 100 percent. Thus, the value given in columns A is the change in percentage referred to the initial value, whereas the value given in columns B is the change in percentage of the treated group, referred to the untreated control group.

In series [3] the test system is rats that had been fed fructose doses. Nature of the series: Hypoglycemic activity: lowering of the blood sugar level in rats fed fructose doses. To be noted: 100 mg/kg once a day over 3 days, 24 hours after last administration, vs placebo control group. It is filed as in vivo, rat. Here is the method:
The hypoglycemic activity of some bis(4-hydroxy-phenyl) alkanoic acid derivatives of formulae I and II could be established by administering once a day, over 3 days, 100 mg of the active compound per kg of test animal to rats that had been fed fructose doses and by taking blood samples 24 hours after the last administration in order to determine the blood sugar level by means of an autoanalyzer.
The lowering of the blood sugar content indicated in following Table 4 refers to a control group treated with placebos (blank doses).

[4] abbreviates: read-out: serum cholesterol, change in percentage as compared to the control group.
The mark [5] stands for this setting: read-out: serum lipid phosphorus, change in percentage as compared to the control group.
The mark [6] stands for this setting: read-out: serum triglyceride, change in percentage as compared to the control group.

Read-outs that look alike come from different tables or passages of the source. Some results are limits rather than exact numbers.

Consider `CCCCOC(=O)CCC(C)(c1ccc(O)c(C(C)(C)C)c1)c1ccc(O)c(C(C)(C)C)c1` [Example 15, 4,4-Bis(4'-hydroxy-3'-tert.-butyl-phenyl)pentanoic acid n-butyl ester], for which the change in vivo at 100 mg/kg in series [1] is -28%; in series [2] (setting [4]), -57%; in series [2] (setting [5]) it was -53%; in series [2] (setting [6]), -34%. Moreover, the LD50 mice p.o. in the series with mice is listed as greater than 8000 mg/kg. Besides, in the series “in vivo”, the LD50 (commonly the dose at which mortality reaches 50%) is greater than 8000 mg/kg. Also, the figures for the “serum triglyceride, change in percentage (A: referred to the initial value)” value in the series on normolipemic rats (10 mg/kg/day p.o.), in the series on normolipemic rats (30 mg/kg/day p.o.) and in the series on normolipemic rats (100 mg/kg/day p.o.) were -20%, -32% and -36%, respectively. For the same compound, the “serum triglyceride, change in percentage (B: referred to the untreated control group)” value in the series with normolipemic rats (10 mg/kg/day p.o.) was -34%; in the series with normolipemic rats (30 mg/kg/day p.o.) it was -37%; with normolipemic rats (100 mg/kg/day p.o.) it was -13%. The “serum cholesterol, change in percentage (A: referred to the initial value)” value in the series on normolipemic rats (30 mg/kg/day p.o.) is -13%; in the series with normolipemic rats (100 mg/kg/day p.o.), -37%. Further, the figures for the “serum cholesterol, change in percentage (B: referred to the untreated control group)” value in the series with normolipemic rats (30 mg/kg/day p.o.) and in the series with normolipemic rats (100 mg/kg/day p.o.) were -10% and -20%, respectively.

Regarding `CC(C)(C)c1cc(C(C(=O)O)c2cc(C(C)(C)C)c(O)c(C(C)(C)C)c2)cc(C(C)(C)C)c1O` [Example 3, Bis(4'-hydroxy-3',5'-di-tert.butyl-phenyl)ethanoic acid], the change in vivo at 30 mg/kg in series [1] is -36%. For the same compound, the change in vivo at 100 mg/kg in series [1] was -37%; in series [2] (setting [4]), -23%; in series [2] (setting [5]) it was -26%; in series [2] (setting [6]) it was -44%. This compound also came in with an LD50 mice p.o. in the series on mice of 6000 to 8000 mg/kg. In “in vivo”, this compound showed an LD50 of 6000 to 8000 mg/kg. The “serum cholesterol, change in percentage (A: referred to the initial value)” value with normolipemic rats (10 mg/kg/day p.o.) is given as -24%; in the series with normolipemic rats (30 mg/kg/day p.o.), -32%; in the series on normolipemic rats (100 mg/kg/day p.o.), -61%. Also, the results for the “serum cholesterol, change in percentage (B: referred to the untreated control group)” value in the series on normolipemic rats (10 mg/kg/day p.o.), with normolipemic rats (30 mg/kg/day p.o.) and with normolipemic rats (100 mg/kg/day p.o.) were -21%, -22% and -52%, respectively. Besides, the entries for the “serum triglyceride, change in percentage (B: referred to the untreated control group)” value in the series on normolipemic rats (10 mg/kg/day p.o.), in the series with normolipemic rats (30 mg/kg/day p.o.) and in the series with normolipemic rats (100 mg/kg/day p.o.) were -29%, -46% and -60%, respectively. Besides, the “serum triglyceride, change in percentage (A: referred to the initial value)” value in the series with normolipemic rats (30 mg/kg/day p.o.) is -39%; with normolipemic rats (100 mg/kg/day p.o.), -70%. For the same compound, in series [3], the “lowering of the blood sugar level in per cent” value is -15 per cent.

Consider `CCCCOC(=O)CC(C)(c1ccc(O)c(C(C)(C)C)c1)c1ccc(O)c(C(C)(C)C)c1` [Example 7, 3,3-bis(4'-hydroxy-3'-tert.-butyl-phenyl)butanoic acid butyl ester], for which, in series [1], the change in vivo at 30 mg/kg was -19% and the change in vivo at 100 mg/kg is -35%. The compound also gave an LD50 mice p.o. in the series with mice greater than 8000 mg/kg. In series [2] (setting [4]), the change in vivo at 100 mg/kg is -30%. In addition, the change in vivo at 100 mg/kg in series [2] (setting [5]) is -30%. The change in vivo at 100 mg/kg in series [2] (setting [6]) was -34%. The LD50 in the series “in vivo” is greater than 8000 mg/kg. In addition, in the series on normolipemic rats (100 mg/kg/day p.o.), the “serum cholesterol, change in percentage (A: referred to the initial value)” value is -29%; the “serum triglyceride, change in percentage (A: referred to the initial value)” value is listed as -53%; the “serum cholesterol, change in percentage (B: referred to the untreated control group)” value is reported as -26%; the “serum triglyceride, change in percentage (B: referred to the untreated control group)” value was -23%. Further, the “lowering of the blood sugar level in per cent” value in series [3] is -24 per cent.

The values are drawn from patent US4007282A, “Lowering lipid and sugar levels in the blood with a bis(4-hydroxyphenyl)alkanoic acid or ester thereof” (Hoechst Aktiengesellschaft, priority 1972, dated 1977).
